Experiments:
[1] = test system: A549; test: Antiproliferative activity against SMARCA4-deficient human A549 cells assessed as cell growth inhibition measured after 7 days by WST-8 assay; type: functional; settings: A549, 168 h, time 7 day
[2] = molecular target: T1, von Hippel-Lindau disease tumor suppressor/SWI/SNF-related matrix-associated actin-dependent regulator of chromatin subfamily A member 4 (Homo sapiens, UniProt P51532+P40337); test: PROTAC activity at VHL/C-terminal HiBiT fused SMARCA4 in human HeLa cells assessed as induction of SMARCA4 degradation by measuring maximal efficacy incubated for 24 hrs by Nano-Glo HiBiT analysis relative to control; type: cell-based
Target sequence in this assay (P40337 whole entry, looked up, the tested form may be a part): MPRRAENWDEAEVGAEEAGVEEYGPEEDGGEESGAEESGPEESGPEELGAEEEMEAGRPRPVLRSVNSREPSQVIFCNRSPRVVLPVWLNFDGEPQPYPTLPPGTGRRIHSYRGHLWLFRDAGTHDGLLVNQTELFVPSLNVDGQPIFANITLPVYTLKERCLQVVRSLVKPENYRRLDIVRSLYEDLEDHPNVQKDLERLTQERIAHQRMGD
Target sequence in this assay (P51532 whole entry, looked up, the tested form may be a part): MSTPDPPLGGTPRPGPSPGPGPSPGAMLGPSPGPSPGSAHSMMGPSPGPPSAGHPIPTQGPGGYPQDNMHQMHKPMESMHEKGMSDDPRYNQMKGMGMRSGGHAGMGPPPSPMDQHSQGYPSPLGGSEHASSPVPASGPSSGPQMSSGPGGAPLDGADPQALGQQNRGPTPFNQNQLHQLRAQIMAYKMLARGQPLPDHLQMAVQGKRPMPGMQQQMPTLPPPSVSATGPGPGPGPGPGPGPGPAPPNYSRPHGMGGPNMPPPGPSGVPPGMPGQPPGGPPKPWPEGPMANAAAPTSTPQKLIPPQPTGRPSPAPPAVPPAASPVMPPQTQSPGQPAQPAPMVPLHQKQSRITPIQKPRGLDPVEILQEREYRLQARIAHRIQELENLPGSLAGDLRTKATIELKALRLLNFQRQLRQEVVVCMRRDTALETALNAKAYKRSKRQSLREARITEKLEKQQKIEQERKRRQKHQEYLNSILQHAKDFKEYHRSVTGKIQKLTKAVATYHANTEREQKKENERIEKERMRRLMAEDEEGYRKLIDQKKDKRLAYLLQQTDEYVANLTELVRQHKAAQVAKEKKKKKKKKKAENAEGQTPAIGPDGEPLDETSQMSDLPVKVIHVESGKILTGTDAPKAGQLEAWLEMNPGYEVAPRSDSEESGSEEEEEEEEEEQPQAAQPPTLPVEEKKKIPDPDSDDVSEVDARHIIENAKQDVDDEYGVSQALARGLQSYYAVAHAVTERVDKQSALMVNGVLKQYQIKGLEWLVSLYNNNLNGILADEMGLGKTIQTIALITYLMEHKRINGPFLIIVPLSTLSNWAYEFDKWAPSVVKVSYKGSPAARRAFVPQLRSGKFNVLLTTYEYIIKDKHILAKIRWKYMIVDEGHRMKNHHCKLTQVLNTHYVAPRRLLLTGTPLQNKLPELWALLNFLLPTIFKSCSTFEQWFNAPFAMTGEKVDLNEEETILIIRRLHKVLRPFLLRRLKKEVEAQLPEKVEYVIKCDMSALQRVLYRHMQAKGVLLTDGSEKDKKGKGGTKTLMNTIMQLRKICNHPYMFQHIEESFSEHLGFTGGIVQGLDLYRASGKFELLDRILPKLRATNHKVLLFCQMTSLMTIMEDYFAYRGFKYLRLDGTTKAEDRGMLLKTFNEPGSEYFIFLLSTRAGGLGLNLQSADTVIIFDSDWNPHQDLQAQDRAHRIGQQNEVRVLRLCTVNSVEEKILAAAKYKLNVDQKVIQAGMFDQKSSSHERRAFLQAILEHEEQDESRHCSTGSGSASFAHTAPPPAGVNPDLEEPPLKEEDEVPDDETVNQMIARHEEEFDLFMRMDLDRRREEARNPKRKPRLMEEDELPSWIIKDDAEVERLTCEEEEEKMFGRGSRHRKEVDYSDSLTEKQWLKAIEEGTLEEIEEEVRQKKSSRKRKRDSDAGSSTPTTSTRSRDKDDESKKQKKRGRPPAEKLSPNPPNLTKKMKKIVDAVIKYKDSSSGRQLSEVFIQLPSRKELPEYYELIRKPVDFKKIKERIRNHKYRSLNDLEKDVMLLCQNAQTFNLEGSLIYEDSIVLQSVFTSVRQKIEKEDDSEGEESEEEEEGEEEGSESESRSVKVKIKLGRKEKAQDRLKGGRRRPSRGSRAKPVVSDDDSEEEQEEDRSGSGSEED

[3] = test system: NCI-H838; test: Antiproliferative activity against SMARCA4-deficient human NCI-H838 cells assessed as cell growth inhibition measured after 7 days by WST-8 assay; type: functional; settings: NCI-H838, 168 h, time 7 day
[4] = test system: SK-MEL-5; test: Antiproliferative activity against SMARCA4-deficient human SK-MEL-5 cells assessed as cell growth inhibition by measuring maximal efficacy measured after 7 days by WST-8 assay relative to control; type: functional; settings: time 7 day
[5] = test system: NCI-H1299; test: Antiproliferative activity against SMARCA4-deficient human NCI-H1299 cells assessed as cell growth inhibition measured after 7 days by WST-8 assay; type: functional; settings: NCI-H1299, 168 h, time 7 day
[6] = molecular target: T1, von Hippel-Lindau disease tumor suppressor/SWI/SNF-related matrix-associated actin-dependent regulator of chromatin subfamily A member 4; test: PROTAC activity at VHL/C-terminal HiBiT fused SMARCA4 in human HeLa cells assessed as induction of SMARCA4 degradation incubated for 24 hrs by Nano-Glo HiBiT analysis; type: cell-based
[7] = molecular target: T1, von Hippel-Lindau disease tumor suppressor/SWI/SNF-related matrix-associated actin-dependent regulator of chromatin subfamily A member 4; test: PROTAC activity at VHL/C-terminal HiBiT fused SMARCA4 in human HeLa cells assessed as induction of SMARCA4 degradation at 0.00001 to 1 uM by Nano-Glo HiBiT analysis; type: cell-based; settings: dose lower 1e-05 µM, dose upper 1.0 µM, time 6-48 hrs, TDE = time-dependent effect
Target sequence in this assay (P40337 whole entry, looked up, the tested form may be a part): as the sequence (P40337 whole entry, looked up, the tested form may be a part) above
Target sequence in this assay (P51532 whole entry, looked up, the tested form may be a part): as the sequence (P51532 whole entry, looked up, the tested form may be a part) above

[8] = test system: NCI-H1693; test: Antiproliferative activity against SMARCA4-deficient human NCI-H1693 cells assessed as cell growth inhibition by measuring maximal efficacy measured after 7 days by WST-8 assay relative to control; type: functional; settings: time 7 day
[9] = molecular target: T1, von Hippel-Lindau disease tumor suppressor/SWI/SNF-related matrix-associated actin-dependent regulator of chromatin subfamily A member 4; test: PROTAC activity at VHL/C-terminal HiBiT fused SMARCA4 in human HeLa cells assessed as induction of SMARCA4 degradation incubated for 6 to 48 hrs by Nano-Glo HiBiT analysis; type: cell-based; settings: dose lower 1e-05 µM, dose upper 1.0 µM, time 6-48 hrs
Target sequence in this assay (P40337 whole entry, looked up, the tested form may be a part): as the sequence (P40337 whole entry, looked up, the tested form may be a part) above
Target sequence in this assay (P51532 whole entry, looked up, the tested form may be a part): as the sequence (P51532 whole entry, looked up, the tested form may be a part) above

[10] = molecular target: T1, von Hippel-Lindau disease tumor suppressor/SWI/SNF-related matrix-associated actin-dependent regulator of chromatin subfamily A member 4; test: PROTAC activity at VHL/SMARCA4 in human RKO cells assessed as induction of […] degradation by measuring maximal efficacy incubated for 18 hrs by Western blotting analysis relative to control; type: cell-based
Target sequence in this assay (P40337 whole entry, looked up, the tested form may be a part): as the sequence (P40337 whole entry, looked up, the tested form may be a part) above
Target sequence in this assay (P51532 whole entry, looked up, the tested form may be a part): as the sequence (P51532 whole entry, looked up, the tested form may be a part) above

[11] = molecular target: T2, von Hippel-Lindau disease tumor suppressor/SWI/SNF-related matrix-associated actin-dependent regulator of chromatin subfamily A member 2 (Homo sapiens, UniProt P51531+P40337); test: PROTAC activity at VHL/SMARCA2 in human RKO cells assessed as induction of SMARCA2 degradation incubated for 18 hrs by Western blotting analysis; type: cell-based
[12] = test system: NCI-H1793; test: Antiproliferative activity against SMARCA4-deficient human NCI-H1793 cells assessed as cell growth inhibition measured after 7 days by WST-8 assay; type: functional; settings: NCI-H1793, 168 h, time 7 day
[13] = test system: SK-MEL-28; test: Antiproliferative activity against human SK-MEL-28 cells expressing wild-type SMARCA2 assessed as cell growth inhibition measured after 7 days by WST-8 assay; type: functional; settings: SK-MEL-28, 168 h, time 7 day
[14] = test system: NCI-H1944; test: Antiproliferative activity against SMARCA4-deficient human NCI-H1944 cells assessed as cell growth inhibition by measuring maximal efficacy measured after 7 days by WST-8 assay relative to control; type: functional; settings: time 7 day
[15] = Antiproliferative activity against SMARCA4-deficient human NCI-H1568 cells assessed as cell growth inhibition measured after 7 days by WST-8 assay; type: functional; settings: NCI-H1568, 168 h, time 7 day
[16] = test system: SK-MEL-28; test: Antiproliferative activity against human SK-MEL-28 cells expressing wild-type SMARCA2 assessed as cell growth inhibition by measuring maximal efficacy measured after 7 days by WST-8 assay relative to control; type: functional; settings: time 7 day
[17] = test system: NCI-H1975; test: Antiproliferative activity against human NCI-H1975 cells expressing wild-type SMARCA2 assessed as cell growth inhibition measured after 7 days by WST-8 assay; type: functional; settings: NCI-H1975, 168 h, time 7 day
[18] = test system: NCI-H1793; test: Antiproliferative activity against SMARCA4-deficient human NCI-H1793 cells assessed as cell growth inhibition by measuring maximal efficacy measured after 7 days by WST-8 assay relative to control; type: functional; settings: time 7 day
[19] = molecular target: T1, von Hippel-Lindau disease tumor suppressor/SWI/SNF-related matrix-associated actin-dependent regulator of chromatin subfamily A member 4; test: PROTAC activity at VHL/SMARCA4 in human RKO cells assessed as induction of […] degradation incubated for 18 hrs by Western blotting analysis; type: cell-based
[20] = test system: NCI-H1975; test: Antiproliferative activity against human NCI-H1975 cells expressing wild-type SMARCA2 assessed as cell growth inhibition by measuring maximal efficacy measured after 7 days by WST-8 assay relative to control; type: functional; settings: time 7 day
[21] = test system: A549; test: Antiproliferative activity against SMARCA4-deficient human A549 cells assessed as cell growth inhibition by measuring maximal efficacy measured after 7 days by WST-8 assay relative to control; type: functional; settings: time 7 day
[22] = test system: NCI-H1792; test: Antiproliferative activity against human NCI-H1792 cells expressing wild-type SMARCA2 assessed as cell growth inhibition by measuring maximal efficacy measured after 7 days by WST-8 assay relative to control; type: functional; settings: time 7 day
[23] = molecular target: T2, von Hippel-Lindau disease tumor suppressor/SWI/SNF-related matrix-associated actin-dependent regulator of chromatin subfamily A member 2; test: PROTAC activity at VHL/C-terminal HiBiT fused SMARCA2 in human HeLa cells assessed as induction of SMARCA2 degradation at 0.000001 to 1 uM by Nano-Glo HiBiT analysis; type: cell-based; settings: dose lower 1e-06 µM, dose upper 1.0 µM, time 6-48 hrs, TDE = time-dependent effect
Target sequence in this assay (P40337 whole entry, looked up): as the sequence (P40337 whole entry, looked up, the tested form may be a part) above
Target sequence in this assay (P51531 whole entry, looked up): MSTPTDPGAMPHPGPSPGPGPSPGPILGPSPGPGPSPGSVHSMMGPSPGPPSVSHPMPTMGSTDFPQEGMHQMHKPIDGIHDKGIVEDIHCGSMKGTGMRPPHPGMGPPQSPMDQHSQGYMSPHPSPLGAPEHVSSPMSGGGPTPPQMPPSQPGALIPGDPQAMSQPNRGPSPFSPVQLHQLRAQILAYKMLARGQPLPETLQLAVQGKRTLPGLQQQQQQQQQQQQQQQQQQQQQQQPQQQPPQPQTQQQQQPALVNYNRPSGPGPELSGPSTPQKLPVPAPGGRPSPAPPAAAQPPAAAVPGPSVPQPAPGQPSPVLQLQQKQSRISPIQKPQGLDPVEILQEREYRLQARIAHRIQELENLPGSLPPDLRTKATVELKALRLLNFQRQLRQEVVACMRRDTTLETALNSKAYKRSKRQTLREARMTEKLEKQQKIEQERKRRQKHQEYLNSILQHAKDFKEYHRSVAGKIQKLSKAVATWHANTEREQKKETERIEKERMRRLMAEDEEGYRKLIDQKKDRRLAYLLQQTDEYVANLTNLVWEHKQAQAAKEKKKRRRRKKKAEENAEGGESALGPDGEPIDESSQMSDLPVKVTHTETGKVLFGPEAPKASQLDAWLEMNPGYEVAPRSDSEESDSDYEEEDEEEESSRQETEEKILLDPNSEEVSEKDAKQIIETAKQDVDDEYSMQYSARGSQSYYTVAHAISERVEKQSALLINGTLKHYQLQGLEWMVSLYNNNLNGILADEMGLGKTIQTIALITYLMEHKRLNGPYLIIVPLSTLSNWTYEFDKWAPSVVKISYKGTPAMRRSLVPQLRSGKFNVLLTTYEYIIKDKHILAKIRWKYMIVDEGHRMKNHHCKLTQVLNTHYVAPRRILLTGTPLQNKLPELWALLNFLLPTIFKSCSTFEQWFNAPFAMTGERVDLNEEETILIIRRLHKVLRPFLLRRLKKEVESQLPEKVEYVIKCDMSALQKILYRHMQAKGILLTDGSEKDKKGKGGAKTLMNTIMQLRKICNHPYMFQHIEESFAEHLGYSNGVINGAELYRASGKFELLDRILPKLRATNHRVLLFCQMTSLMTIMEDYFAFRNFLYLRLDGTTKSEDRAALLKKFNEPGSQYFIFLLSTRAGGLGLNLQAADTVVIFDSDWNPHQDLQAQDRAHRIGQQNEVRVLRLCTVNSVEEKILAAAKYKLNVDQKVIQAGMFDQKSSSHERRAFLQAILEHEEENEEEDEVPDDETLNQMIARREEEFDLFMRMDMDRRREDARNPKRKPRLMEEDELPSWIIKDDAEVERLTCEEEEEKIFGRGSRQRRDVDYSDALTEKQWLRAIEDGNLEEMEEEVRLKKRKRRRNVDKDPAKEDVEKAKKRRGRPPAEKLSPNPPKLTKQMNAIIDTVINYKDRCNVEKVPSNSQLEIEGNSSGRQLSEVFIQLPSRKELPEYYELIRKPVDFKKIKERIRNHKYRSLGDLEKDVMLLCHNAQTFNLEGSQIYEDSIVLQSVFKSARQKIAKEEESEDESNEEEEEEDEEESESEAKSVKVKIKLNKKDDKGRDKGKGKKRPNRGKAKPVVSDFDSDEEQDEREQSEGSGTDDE

[24] = test system: NCI-H1299; test: Antiproliferative activity against SMARCA4-deficient human NCI-H1299 cells assessed as cell growth inhibition by measuring maximal efficacy measured after 7 days by WST-8 assay relative to control; type: functional; settings: time 7 day
[25] = molecular target: T2, von Hippel-Lindau disease tumor suppressor/SWI/SNF-related matrix-associated actin-dependent regulator of chromatin subfamily A member 2; test: PROTAC activity at VHL/C-terminal HiBiT fused SMARCA2 in human HeLa cells assessed as induction of SMARCA2 degradation by measuring maximal efficacy incubated for 24 hrs by Nano-Glo HiBiT analysis relative to control; type: cell-based
Target sequence in this assay (P40337 whole entry, looked up): as the sequence (P40337 whole entry, looked up, the tested form may be a part) above
Target sequence in this assay (P51531 whole entry, looked up): as the sequence (P51531 whole entry, looked up) above

[26] = test system: SK-MEL-5; test: Antiproliferative activity against SMARCA4-deficient human SK-MEL-5 cells assessed as cell growth inhibition measured after 7 days by WST-8 assay; type: functional; settings: SK-MEL-5, 168 h, time 7 day
[27] = test system: NCI-H647; test: Antiproliferative activity against human NCI-H647 cells expressing wild-type SMARCA2 assessed as cell growth inhibition by measuring maximal efficacy measured after 7 days by WST-8 assay relative to control; type: functional; settings: time 7 day
[28] = Antiproliferative activity against SMARCA4-deficient human NCI-H1568 cells assessed as cell growth inhibition by measuring maximal efficacy measured after 7 days by WST-8 assay relative to control; type: functional; settings: time 7 day
[29] = molecular target: T2, von Hippel-Lindau disease tumor suppressor/SWI/SNF-related matrix-associated actin-dependent regulator of chromatin subfamily A member 2; test: PROTAC activity at VHL/SMARCA2 in human RKO cells assessed as induction of SMARCA2 degradation by measuring maximal efficacy incubated for 18 hrs by Western blotting analysis relative to control; type: cell-based
Target sequence in this assay (P40337 whole entry, looked up): as the sequence (P40337 whole entry, looked up, the tested form may be a part) above
Target sequence in this assay (P51531 whole entry, looked up): as the sequence (P51531 whole entry, looked up) above

[30] = molecular target: T2, von Hippel-Lindau disease tumor suppressor/SWI/SNF-related matrix-associated actin-dependent regulator of chromatin subfamily A member 2; test: PROTAC activity at VHL/C-terminal HiBiT fused SMARCA2 in human HeLa cells assessed as induction of SMARCA2 degradation incubated for 6 to 48 hrs by Nano-Glo HiBiT analysis; type: cell-based; settings: dose lower 1e-06 µM, dose upper 1.0 µM, time 6-48 hrs
Target sequence in this assay (P40337 whole entry, looked up): as the sequence (P40337 whole entry, looked up, the tested form may be a part) above
Target sequence in this assay (P51531 whole entry, looked up): as the sequence (P51531 whole entry, looked up) above

[31] = test system: NCI-H1693; test: Antiproliferative activity against SMARCA4-deficient human NCI-H1693 cells assessed as cell growth inhibition measured after 7 days by WST-8 assay; type: functional; settings: NCI-H1693, 168 h, time 7 day
[32] = test system: NCI-H1792; test: Antiproliferative activity against human NCI-H1792 cells expressing wild-type SMARCA2 assessed as cell growth inhibition measured after 7 days by WST-8 assay; type: functional; settings: NCI-H1792, 168 h, time 7 day
[33] = test system: NCI-H1944; test: Antiproliferative activity against SMARCA4-deficient human NCI-H1944 cells assessed as cell growth inhibition measured after 7 days by WST-8 assay; type: functional; settings: NCI-H1944, 168 h, time 7 day
[34] = test system: NCI-H647; test: Antiproliferative activity against human NCI-H647 cells expressing wild-type SMARCA2 assessed as cell growth inhibition measured after 7 days by WST-8 assay; type: functional; settings: NCI-H647, 168 h, time 7 day
[35] = test system: NCI-H838; test: Antiproliferative activity against SMARCA4-deficient human NCI-H838 cells assessed as cell growth inhibition by measuring maximal efficacy measured after 7 days by WST-8 assay relative to control; type: functional; settings: time 7 day

GI50 [1]: 30 nM | Emax [2]: 92% | GI50 [3]: 67 nM | GI50 [5]: 116 nM | DC50 [6]: 9 nM | Activity [7]: Tde | Activity [9]: Dose-Dependent Effect | Emax [10]: 67% | DC50 [11]: 1 nM | GI50 [12]: 7.3 nM | GI50 [13]: > 10000 nM | GI50 [17]: 65 nM | DC50 [19]: 32 nM | Activity [23]: Tde | Emax [25]: 94% | GI50 [26]: 4.9 nM | Emax [29]: 81% | Activity [30]: Dose-Dependent Effect | GI50 [31]: 2.8 nM | GI50 [32]: 135 nM | GI50 [33]: 13 nM | GI50 [34]: 165 nM
SMILES: Cc1ncsc1-c1ccc([C@H](CC[C@H](C)CCN2CCC(c3ccc4c(c3)n(C3CCCC3)c3nc(=O)c5c(Br)cccc5n43)CC2)NC(=O)[C@@H]2C[C@@H](O)CN2C(=O)[C@@H](NC(=O)C2(F)CC2)C(C)(C)C)cc1
Imax [4]: 96% | Imax [8]: 86% | Imax [14]: 82% | GI50 [15]: 2.8 nM | Imax [16]: 50% | Imax [18]: 68% | Imax [20]: 63% | Imax [21]: 56% | Imax [22]: 65% | Imax [24]: 74% | Imax [27]: 80% | Imax [28]: 90% | Imax [35]: 82%

Source: ChEMBL document CHEMBL5325488, “Discovery of SMD-3040 as a Potent and Selective SMARCA2 PROTAC Degrader with Strong in vivo Antitumor Activity” (J Med Chem, 2023)
